In patent publication US20090023186A1, “USE OF VALPROIC ACID FOR ENHANCING PRODUCTION OF RECOMBINANT PROTEINS IN MAMMALIAN CELLS” (EXCELLGENE SA, priority 2007, published 2009):

Experiments:
CHO cells = assay: Stable cell lines, IgG batch titer by ELISA (Example 5); format: cell-based, Chinese Hamster; details: 0.5 mmol/l final VPA; stable mass culture; 5 days after VPA addition
CHO DG44 cells = assay: Alternative transgene TNFR-Fc, batch titer by ELISA (Example 4); format: cell-based, Chinese Hamster; details: 0.5 mmol/l final VPA, day 5 after transfection
Protocol: 10 million suspension-adapted HEK293E cells were resuspended in 0.5 ml of Ex-Cell 293 HEK 293 serum-free medium with 4 mmol/l L-glutamine (Cat. No. 14571C-[…]; Lot No. 6A0093; SAFC Biosciences, Lenexa, Kans., USA, “Ex-Cell” medium; note: “Ex-Cell” medium-as used herein-refers to a medium comprising 4 mmol/l L-glutamine) in a 50-ml filter tube each (TPP AG, Trasadingen, Switzerland; Cat. No. 87050, Lot 20050174). In a separate set, 10 million suspension-adapted CHO DG44 cells were resuspended in 0.5 ml of ProCHO5 serum-free medium with 4 mmol/[…] hypoxanthine and 0.194 g/l thymidine (BioWhittaker (Lonza), Belgium; Cat. No. BE12-[…]; Lot No. 7MB0040; “ProCHO5” medium; note: “ProCHO5” medium-as used herein-refers to a medium comprising 4 mmol/[…] hypoxanthine and 0.194 g/l thymidine) in a 50-ml filter tube each (TPP AG, Trasadingen, Switzerland; Cat. No. 87050, Lot 20050174). […] In short, Goat Anti-Human IgG (Fc Fragment specific; Jackson ImmunoResearch Laboratories Inc., West Grove, Pa., USA; Code Number 109-006-098; Lot No. 72349) was used for coating the ELISA-plates, and with AP-conjugated goat anti-human gamma chain IgG (Biosource) the synthesized TNFR-Fc was detected. […] Absorption was measured at 405 nm against 490 nm using a microplate reader (SPECTRAmaxTM340; Molecular Devices, Palo Alto, Calif., USA).

What does the source list for `CCCC(CCC)C(=O)O` [VPA, valproic acid]?
Batch titer CHO (CHO cells): 35.5 ± 2.5 mg/L; Batch titer (CHO DG44 cells): 27.7 ± 3.7 mg/L; Fold increase over control (CHO DG44 cells): 1.8 fold
